Experiment: in vitro
Conditions: human, hela cells, % viability

Structure (SMILES)	viability at 28.5 h, 10 µM
C#CCNC(=O)c1nn(Cc2ccc(S(=O)(=O)N(C)OC)cc2)c2ccccc12 [CBK047985]	96.2%
COc1ccc(Cn2nc(NS(=O)(=O)c3ccc(-c4ccon4)s3)c3ccccc32)cc1 [CBK048031]	92.9%
COc1cccc(S(=O)(=O)Nc2nn(Cc3ccc(C)cc3)c3ccccc23)c1 [CBK048043]	89.8%
O=S(=O)(Nc1nn(Cc2ccc(C(F)(F)F)cc2)c2ccccc12)c1cccc2nsnc12 [CBK048086]	94.8%
COc1ccc(Cn2nc(NC(C)=O)c3ccccc32)cc1 [CBK048200]	109%
Cc1ccc(Cn2nc(NC(=O)c3cc(C)on3)c3ccccc32)cc1 [CBK048215]	90.8%
COc1ccc(Cn2nc(NC(=O)c3cnc4ccccc4n3)c3ccccc32)cc1 [CBK048343]	93%
COc1ccc(Cn2nc(NC(=O)c3cn(C)c4ccccc34)c3ccccc32)cc1 [CBK048344]	57.2%
O=C(Cc1ccc2c(c1)OCO2)Nc1nn(Cc2ccc(C(F)(F)F)cc2)c2ccccc12 [CBK048401]	115%
CCc1cc(OCc2ccc(Cn3nc(NC(C)=O)c4ccccc43)cc2)c2ccccc2n1 [CBK048402]	91%
COCCOc1cccc(OCCOc2nccnc2N2CCNC[C@H]2C)c1 [CBK048435]	104%
O=C(NCc1ccco1)c1nn(-c2nc3ccccc3s2)c2ccccc12 [CBK048482]	97.4%
C#CCNC(=O)c1nn(-c2nc3ccccc3s2)c2ccccc12 [CBK048486]	99.2%
Cc1cc(NC(=O)c2nn(-c3nc4ccccc4s3)c3ccccc23)no1 [CBK048489]	95.4%
O=C(NCCOc1ccccc1)c1nn(-c2ncccn2)c2ccccc12 [CBK048494]	81%
O=C(NCCc1c[nH]c2ccccc12)c1nn(-c2ncccn2)c2ccccc12 [CBK048496]	77.7%
O=C(NCc1ccncc1)c1nn(-c2ncccn2)c2ccccc12 [CBK048498]	93.1%
O=C(NC1CC1)c1nn(-c2ncccn2)c2ccccc12 [CBK048508]	88%
O=C(Nc1ccc(OC(F)(F)F)cc1)c1nn(-c2ncccn2)c2ccccc12 [CBK048510]	98.9%
O=C(Nc1ccon1)c1nn(-c2ncccn2)c2ccccc12 [CBK048513]	95.3%
COc1ccc(Cn2nc(NC(=O)Nc3c(C)noc3C)c3ccccc32)cc1 [CBK048528]	88.9%
COc1ccc(Cn2nc(NC(=O)Nc3ccc(N(C)C)cc3)c3ccccc32)cc1 [CBK048529]	90%
CN(C)C(=O)c1ccc(Cn2nc(NC(=O)OCc3ccccc3)c3ccccc32)cc1 [CBK048578]	89.6%
CS(=O)(=O)Nc1nccnc1N1CCN(c2ccccc2)CC1 [CBK048688]	91.8%
COc1cc(OC)nc(N2CCN(c3nccnc3NS(=O)(=O)C3CC3)CC2)n1 [CBK048698]	109%
O=S(=O)(Nc1nccnc1N1CCN(c2ccccc2)CC1)c1ccc(F)cc1 [CBK048706]	94.2%
CCCS(=O)(=O)Nc1nccnc1N1CCN(c2ccc3c(c2)OCO3)CC1 [CBK048824]	93.6%

Structure (SMILES)	viability at 28.5 h, 10 µM
CCCS(=O)(=O)Nc1nccnc1N1CCN(c2cnccn2)CC1 [CBK048828]	85.5%
Cc1cc(C)cc(NC(=O)N2CCN(c3nccnc3NS(C)(=O)=O)CC2)c1 [CBK048877]	105%
CNC(=S)N1CCN(c2nccnc2NS(=O)(=O)Cc2ccccc2)CC1 [CBK049044]	102%
COCc1ccc(-c2nccnc2NS(C)(=O)=O)cc1 [CBK049631]	101%
O=S(=O)(Nc1nccnc1N1CCN(c2cnccn2)CC1)c1ccc(Cl)cc1 [CBK049664]	88.1%
COc1cc([C@@]23CCC(=O)C[C@@H]2N(C)CC3)ccc1OCc1ccccc1 [CBK049727]	106%
COc1ccccc1CN(CC1CCNCC1)C(=O)NC(c1ccccc1)c1ccccc1 [CBK049741]	115%
O=C(Nc1ccccc1C(F)(F)F)N(Cc1ccccc1C(F)(F)F)CC1CCNCC1 [CBK049744]	112%
CC(C)(C)c1ccc(NC(=O)N(Cc2ccccc2C(F)(F)F)CC2CCNCC2)cc1 [CBK049752]	86.7%
O=C(NCc1ccccc1Cl)N(Cc1cccc(Cl)c1)CC1CCNCC1 [CBK049762]	80.4%
Cc1noc(C)c1NC(=O)N(Cc1ccc2ccccc2c1)CC1CCNCC1 [CBK049774]	110%
O=C(Nc1c(F)cccc1F)N(Cc1cc(F)cc(F)c1)CC1CCNCC1 [CBK049795]	90.5%
CC(C)(C)c1ccccc1NC(=O)N(Cc1cc(F)cc(F)c1)CC1CCNCC1 [CBK049802]	108%
Nc1nc(CC(=O)N2CCCCC2)cs1 [CBK049866]	97.9%
Cc1c(Cl)cccc1S(=O)(=O)Nc1c(C(=O)O)[nH]c2ccccc12 [CBK049889]	86.5%
COc1cc([C@@]23CC[C@@H](NC(=O)Nc4ccc(F)c(F)c4)C[C@@H]2N(C)CC3)ccc1O [CBK049958C]	90.3%
COC(=O)c1sc2ncccc2c1NS(=O)(=O)c1cc(Br)c(Cl)s1 [CBK049973]	112%
COC(=O)c1sc2ncccc2c1NS(=O)(=O)Cc1ccccc1[N+](=O)[O-] [CBK049974]	102%
COc1ccc(Br)cc1S(=O)(=O)Nc1c(C(=O)O)sc2ncccc12 [CBK049978]	88%
COc1ccc(S(=O)(=O)Nc2c(C(=O)O)sc3ncccc23)cc1OC [CBK049979]	87.3%
Cc1noc(C)c1S(=O)(=O)Nc1c(C(=O)O)sc2ncccc12 [CBK049988]	99.5%
CCN(CC)C(=O)c1sc2ncccc2c1NS(=O)(=O)Cc1ccccc1[N+](=O)[O-] [CBK050022]	92.1%
Cc1ccc(S(=O)(=O)Nc2c(C(=O)N3CCN(C)CC3)sc3ncccc23)cc1[N+](=O)[O-] [CBK050025]	91.2%
CN1CCN(C(=O)c2[nH]c3ccccc3c2NS(=O)(=O)c2cccc3cccnc23)CC1 [CBK050041]	87.2%
CN1CCN(C(=O)c2[nH]c3ccccc3c2NS(=O)(=O)Cc2ccccc2)CC1 [CBK050046]	93.9%
CN1CCN(C(=O)c2[nH]c3ccccc3c2NS(=O)(=O)c2cc(F)c(Br)cc2F)CC1 [CBK050051]	90.5%
CN1CCN(C(=O)c2[nH]c3ccccc3c2NS(=O)(=O)Cc2ccccc2[N+](=O)[O-])CC1 [CBK050059]	92.6%

Structure (SMILES)	viability at 28.5 h, 10 µM
Cc1ccc(S(=O)(=O)Nc2c(C(=O)N3CCN(C)CC3)[nH]c3ccccc23)cc1[N+](=O)[O-] [CBK050060]	90.1%
O=C(c1[nH]c2ccccc2c1NS(=O)(=O)/C=C/c1ccccc1)N1CCOCC1 [CBK050068]	93.1%
O=C(c1[nH]c2ccccc2c1NS(=O)(=O)Cc1ccccc1[N+](=O)[O-])N1CCOCC1 [CBK050079]	107%
O=C(Nc1ccc(F)cc1)c1[nH]c2ccccc2c1NS(=O)(=O)c1ccc(Cl)c(Cl)c1Cl [CBK050091]	86.7%
COc1ccc(Br)cc1S(=O)(=O)Nc1c(C(=O)Nc2ccc(F)cc2)[nH]c2ccccc12 [CBK050095]	88.2%
CCN(CC)C(=O)c1[nH]c2ccccc2c1NS(=O)(=O)c1ccc(F)cc1 [CBK050105]	94.1%
CCN(CC)C(=O)c1[nH]c2ccccc2c1NS(=O)(=O)c1cc(Br)ccc1OC [CBK050113]	92.6%
CC(C)(C)Cc1nnc(N)s1 [CBK050161]	92.6%
CC(C)c1nnc(NS(=O)(=O)c2ccc(N)cc2)s1 [CBK050163]	101%
Cc1ccc(S(N)(=O)=O)cc1NC(=O)c1ccc[nH]1 [CBK050200]	91.2%
O=C(CCCc1ccccc1)Nc1c(F)cc(F)cc1OC1CCNCC1 [CBK050222T]	96.1%
O=C(Nc1ccccc1OC1CCNCC1)c1ccccc1 [CBK050238T]	115%
COc1cc(F)cc(OC2CCNCC2)c1NC(=O)C1(c2ccccc2)CCCCC1 [CBK050241T]	107%
COc1cc(F)cc(OC2CCNCC2)c1NC(=O)Cc1c[nH]c2ccccc12 [CBK050246T]	91%
COc1ccc(CCCC(=O)Nc2c(C)nn(C)c2N2CCNCC2)cc1OC [CBK050252T]	93%
Cc1nn(C)c(N2CCNCC2)c1NC(=O)Cc1c[nH]c2ccccc12 [CBK050256T]	97.1%
Cc1nn(C)c(N2CCNCC2)c1NC(=O)c1ccccc1 [CBK050257T]	99%
O=C(Nc1c(F)cc(F)cc1OC1CCNCC1)c1cnccn1 [CBK050273T]	100%
O=C(Nc1c(F)cc(F)cc1OC1CCNCC1)c1ccccn1 [CBK050274T]	94.8%
O=C(Nc1c(F)cc(F)cc1OC1CCNCC1)c1cccnc1 [CBK050275T]	100%
COc1ccc(C(=O)Nc2ccccc2OC2CCNCC2)cc1 [CBK050282T]	85%
COc1ccc(C(=O)Nc2c(OC)cc(F)cc2OC2CCNCC2)cc1 [CBK050294T]	97%
Cc1nn(C)c(N2CCNCC2)c1NC(=O)c1cccn1C [CBK050309T]	94.8%
O=C(/C=C/c1cccnc1)Nc1c(F)cc(F)cc1OC1CCNCC1 [CBK050324T]	90.5%
Cn1cc(C(=O)Nc2c(F)cc(F)cc2OC2CCNCC2)c2ccccc21 [CBK050328T]	89.1%

Same assay, conditions: human, hela cells, % viability, bulk resorufin, single well

Structure (SMILES)	viability at 28.5 h, 10 µM
O=C(Nc1ccc2c(c1)OC(F)(F)O2)c1nn(Cc2ccc(-c3csnn3)cc2)c2ccccc12 [CBK047877]	86.8%
COc1ccc(Cn2nc(C(=O)NCc3ccco3)c3ccccc32)cc1 [CBK047883]	63.3%
COc1ccc(Cn2nc(C(=O)Nc3nnc(C(F)(F)F)s3)c3ccccc32)cc1 [CBK047884]	99.3%
Cc1ccc(Cn2nc(NC(=O)Oc3ccccc3)c3ccccc32)cc1 [CBK048407]	84.2%
COc1ccc(OC(=O)Nc2nn(Cc3ccc(C#N)cc3)c3ccc(C)cc23)cc1 [CBK048654]	74.4%

— PMC12040169 (PLOS Biology, 2025)
